Where two headings read alike, the source gives them in different places.
Experiments:
Mcl-1 = Mcl-1 (Homo sapiens (Human), UniProt Q07820); experiment: Fluorescence polarization anisotropy (FPA) competition assay, FITC-Bak or FITC-Bim BH3 peptide; assay type: binding; conditions: read-out: Ki for Inhibition of Mcl-1 by FPA assay
[1] = tested on: H929 human cancer cell lines; experiment: Cellular viability / proliferation (Cell TiterGlo, 72 h); assay type: cell-based
Method in brief: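 Top dose 50 μM, serially diluted 2-fold, applied one day after seeding (1,000 cells/well, 10% FBS), DMSO below 1%.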

[2] = Homo sapiens, NCI-H929, 72 h, read-out: GI50 on cellular proliferation of H929 human cancer cell lines, H929 cells, 72 h, Cell TiterGlo, 10% FBS
[3] = H929 cells, 72 h, Cell TiterGlo, 10% FBS, read-out: GI50 on cellular proliferation of H929 human cancer cell lines

Sequence of Mcl-1 (Q07820 172-327): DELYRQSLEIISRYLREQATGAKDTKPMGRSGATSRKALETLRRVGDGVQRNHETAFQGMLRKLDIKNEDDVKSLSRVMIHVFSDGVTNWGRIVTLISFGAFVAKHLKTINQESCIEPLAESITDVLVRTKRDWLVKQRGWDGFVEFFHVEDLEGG

Molecule	Ki (Mcl-1) [nM]	GI50 [1, 2] [nM]	GI50 [1, 3] [nM]	GI50 ([1]; read-out: GI50 on cellular proliferation of H929 human cancer cell lines, H929 cells, 72 h, Cell TiterGlo, 10% FBS) [nM]
Cc1cc(OCCCc2c3n(c4c(-c5c(C)nn(C)c5C)c(Cl)ccc24)[C@H](C)CN(c2cc(C(C)C)cc4cc(C(N)=O)n(C)c24)C3=O)cc(C)c1Cl [Example 422, (R)-7-(7-Chloro-10-(3-(4-chloro-3,5-dimethylphenoxy)propyl)-4-methyl-1-oxo-6-(1,3,5-trimethyl-1H-pyrazol-4-yl)-3,4-dihydropyrazino[1,2-a]indol-2(1H)-yl)-5-isopropyl-1-methyl-1H-indole-2-carboxamide]	< 1	830	–	–
Cc1cc(OCCCc2c3n(c4c(-c5c(C)nn(C)c5C)c(Cl)ccc24)[C@H](C)CN(c2coc4ccccc24)C3=O)cc(C)c1Cl (single isomer, unassigned) [Example 237]	14	7600	–	–
Cc1cc(OCCCc2c3n(c4c(-c5c(C)nn(C)c5C)c(Cl)ccc24)[C@H](C)CN(c2cc(Cl)cc4c(C(=O)O)cn(C)c24)C3=O)cc(C)c1Cl [Example 449, (R)-5Chloro-7-(7-chloro-10-(3-(4-chloro-3,5-dimethylphenoxy)propyl)-4-methyl-1-oxo-6-(1,3,5-trimethyl-1H-pyrazol-4-yl)-3,4-dihydropyrazino[1,2-a]indol-2(1H)-yl)-1-methyl-1H-indole-3-carboxylic acid]	2.6	1200	–	–
COCCn1c(C(=O)O)cc2c(N3C[C@@H](C)n4c(c(CCCOc5cc(C)c(Cl)c(C)c5)c5ccc(Cl)c(-c6c(C)nn(C)c6C)c54)C3=O)cccc21 [Example 353, (R)-4-(7-Chloro-10-(3-(4-chloro-3,5-dimethylphenoxy)propyl)-4-methyl-1-oxo-6-(1,3,5-trimethyl-1H-pyrazol-4-yl)-3,4-dihydropyrazino[1,2-a]indol-2(1H)-yl)-1-(2-methoxyethyl)-1H-indole-2-carboxylic acid]	2.1	2900	–	–
Cc1cc(OCCCc2c3n(c4c(-c5c(C)nn(C)c5C)c(Cl)ccc24)CCCN(c2cc(C(=O)O)cc4nn(C)cc24)C3=O)cc(C)c1Cl [Example 36, 4-[8-Chloro-11-[3-(4-chloro-3,5-dimethyl-phenoxy)propyl]-1-oxo-7-(1,3,5-trimethylpyrazol-4-yl)-4,5-dihydro-3H-[1,4]diazepino[1,2-a]indol-2-yl]-2-methyl-indazole-6-carboxylic acid]	< 1	2600	–	–
Cc1cc(OCCCc2c3n(c4c(-c5c(C)nn(C)c5C)c(Cl)ccc24)[C@H](C)CN(c2ccc(C(=O)O)c4ccccc24)C3=O)cc(C)c1Cl [Example 189, (R)-4-(7-Chloro-10-(3-(4-chloro-3,5-dimethylphenoxy)propyl)-4-methyl-1-oxo-6-(1,3,5-trimethyl-1H-pyrazol-4-yl)-3,4-dihydropyrazino[1,2-a]indol-2(1H)-yl)-1-naphthoic acid]	1.2	920	–	–
Cc1cc(OCCCc2c3n(c4c(-c5c(C)nn(C)c5C)c(Cl)ccc24)[C@H](C)CN(c2cn(C)c4cc(F)c(C(=O)O)cc24)C3=O)cc(C)c1Cl [Example 355, (M, R)-3-(7-Chloro-10-(3-(4-chloro-3,5-dimethylphenoxy)propyl)-4-methyl-1-oxo-6-(1,3,5-trimethyl-1H-pyrazol-4-yl)-3,4-dihydropyrazino[1,2-a]indol-2(1H)-yl)-6-fluoro-1-methyl-1H-indole-5-carboxylic acid]	1	–	730	–
Cc1cc(OCCCc2c3n(c4c(-c5c(C)nn(C)c5C)c(Cl)ccc24)[C@H](C)CN(c2cc(CN4CCCC4)cc4cc(C(=O)O)n(C)c24)C3=O)cc(C)c1Cl [Example 401, (R)-7-(7-chloro-10-(3-(4-chloro-3,5-dimethylphenoxy)propyl)-4-methyl-1-oxo-6-(1,3,5-trimethyl-1H-pyrazol-4-yl)-3,4-dihydropyrazino[1,2-a]indol-2(1H)-yl)-1-methyl-5-(pyrrolidin-1-ylmethyl)-1H-indole-2-carboxylic acid]	< 1	280	–	–
(R)-4-(7-chloro-10-(3-(4-chloro-3,5-dimethylphenoxy)propyl)-4-methyl-1-oxo-6-(1,3,5-trimethyl-1H-pyrazol-4-yl)-3,4-dihydropyrazino[1,2-a]indol-2(1H)-yl)-2-methyl-2H-indazole-1-carboxylic acid [Example 97]	< 1	–	3400	–
Cc1cc(OCCCc2c3n(c4c(-c5c(C)nc(CNC6CCN(C)CC6)nc5C)c(Cl)ccc24)[C@H](C)CN(c2cn(C)c4ccc(C(=O)O)cc24)C3=O)cc(C)c1Cl [Example 437, (R)-3-(7-Chloro-10-(3-(4-chloro-3,5-dimethylphenoxy)propyl)-6-(4,6-dimethyl-2-(((1-methylpiperidin-4-yl)amino)methyl)pyrimidin-5-yl)-4-methyl-1-oxo-3,4-dihydropyrazino[1,2-a]indol-2(1H)-yl)-1-methyl-1H-indole-5-carboxylic acid]	4.7	1200	–	–
Cc1cc(OCCCc2c3n(c4c(-c5c(C)n[nH]c5C)c(Cl)ccc24)[C@H](C)CN(c2cc(C(=O)O)c4cnn(C)c4c2)C3=O)cc(C)c1Cl [Example 93, (R)-6-(7-chloro-10-(3-(4-chloro-3,5-dimethylphenoxy)propyl)-6-(3,5-dimethyl-1H-pyrazol-4-yl)-4-methyl-1-oxo-3,4-dihydropyrazino[1,2-a]indol-2(1H)-yl)-1-methyl-1H-indazole-4-carboxylic acid]	< 1	7500	–	–
Cc1cc(OCCCc2c3n(c4c(-c5c(C)nn(C)c5C)c(Cl)ccc24)[C@H](C)CN(c2cn(C)c4ccc(C(=O)N5CCCC5)cc24)C3=O)cc(C)c1Cl [Example 290, (4R)-7-chloro-10-[3-(4-chloro-3,5-dimethyl-phenoxy)propyl]-4-methyl-2-[1-methyl-5-(pyrrolidine-1-carbonyl)indol-3-yl]-6-(1,3,5-trimethylpyrazol-4-yl)-3,4-dihydropyrazino[1,2-a]indol-1-one]	12	5300	–	–
Cc1cc(N2C[C@@H](C)n3c(c(CCCOc4cc(C)c(Cl)c(C)c4)c4ccc(Cl)c(-c5c(C)nn(C)c5C)c43)C2=O)c2c(c1)cc(C(N)=O)n2Cc1ccccn1 [Example 415, (R)-7-(7-Chloro-10-(3-(4-chloro-3,5-dimethylphenoxy)propyl)-4-methyl-1-oxo-6-(1,3,5-trimethyl-1H-pyrazol-4-yl)-3,4-dihydropyrazino[1,2-a]indol-2(1H)-yl)-5-methyl-1-(pyridin-2-ylmethyl)-1H-indole-2-carboxamide]	3.4	510	–	–
Cc1cc(OCCCc2c3n(c4c(-c5c(C)nn(C)c5C)c(Cl)ccc24)[C@H](C)[C@@H](C)NC3=O)cc(C)c1Cl [Example 140, (3R,4R)-7-chloro-10-(3-(4-chloro-3,5-dimethylphenoxy)propyl)-3,4-dimethyl-6-(1,3,5-trimethyl-1H-pyrazol-4-yl)-3,4-dihydropyrazino[1,2-a]indol-1(2H)-one]	79	7600	–	–
Cc1cc(N2C[C@@H](C)n3c(c(CCCOc4cc(C)c(Cl)c(C)c4)c4ccc(Cl)c(-c5c(C)nc(CN6CCN(C)CC6)nc5C)c43)C2=O)c2c(c1)cc(C(=O)O)n2C [Example 426, (R)-7-(7-Chloro-10-(3-(4-chloro-3,5-dimethylphenoxy)propyl)-6-(4,6-dimethyl-2-((4-methylpiperazin-1-yl)methyl)pyrimidin-5-yl)-4-methyl-1-oxo-3,4-dihydropyrazino[1,2-a]indol-2(1H)-yl)-1,5-dimethyl-1H-indole-2-carboxylic acid]	< 1	250	–	–
Cc1cc(OCCCc2c3n(c4c(-c5c(C)nn(C)c5C)c(Cl)ccc24)CCCN(c2cc(C(=O)O)cc4c2N(C)CCO4)C3=O)cc(C)c1Cl [Example 61, 5-[8-chloro-11-[3-(4-chloro-3,5-dimethyl-phenoxy)propyl]-1-oxo-7-(1,3,5-trimethylpyrazol-4-yl)-4,5-dihydro-3H-[1,4]diazepino[1,2-a]indol-2-yl]-4-methyl-2,3-dihydro-1,4-benzoxazine-7-carboxylic acid]	5.7	8200	–	–
Cc1cc(N2C[C@@H](C)n3c(c(CCCOc4cc(C)c(Cl)c(C)c4)c4ccc(Cl)c(-c5c(C)nn(C)c5C)c43)C2=O)c2c(c1)c(C(=O)O)cn2C [Example 162, (R)-7-(7-chloro-10-(3-(4-chloro-3,5-dimethylphenoxy)propyl)-4-methyl-1-oxo-6-(1,3,5-trimethyl-1H-pyrazol-4-yl)-3,4-dihydropyrazino[1,2-a]indol-2(1H)-yl)-1,5-dimethyl-1H-indole-3-carboxylic acid]	< 1	–	–	260
Cc1cc(OCCCc2c3n(c4c(-c5c(C)nn(C)c5C)c(Cl)ccc24)[C@H](C)CN(c2cn(C)c4ccc(-c5nnc(C6CC6)o5)cc24)C3=O)cc(C)c1Cl [Example 423, (R)-7-Chloro-10-(3-(4-chloro-3,5-dimethylphenoxy)propyl)-2-(5-(5-cyclopropyl-1,3,4-oxadiazol-2-yl)-1-methyl-1H-indol-3-yl)-4-methyl-6-(1,3,5-trimethyl-1H-pyrazol-4-yl)-3,4-dihydropyrazino[1,2-a]indol-1(2H)-one]	2.3	1700	–	–
Cc1cc(OCCCc2c3n(c4c(-c5c(C)nn(C)c5C)c(Cl)ccc24)CCCN(c2cc(C(=O)O)c4cn[nH]c4c2)C3=O)cc(C)c1Cl [Example 44, 6-[8-chloro-11-[3-(4-chloro-3,5-dimethyl-phenoxy)propyl]-1-oxo-7-(1,3,5-trimethylpyrazol-4-yl)-4,5-dihydro-3H-[1,4]diazepino[1,2-a]indol-2-yl]-1H-indazole-4-carboxylic acid]	< 1	14000	–	–
